These results are taken from US8765730B2 (Hoffmann-La Roche Inc, priority 2010, dated 2014).

The target in one assay is T1, human GPBAR1 receptor (Homo sapiens, UniProt Q8TDU6).
T1 construct: expressed in transfected cells
T1 sequence (Q8TDU6 1-330): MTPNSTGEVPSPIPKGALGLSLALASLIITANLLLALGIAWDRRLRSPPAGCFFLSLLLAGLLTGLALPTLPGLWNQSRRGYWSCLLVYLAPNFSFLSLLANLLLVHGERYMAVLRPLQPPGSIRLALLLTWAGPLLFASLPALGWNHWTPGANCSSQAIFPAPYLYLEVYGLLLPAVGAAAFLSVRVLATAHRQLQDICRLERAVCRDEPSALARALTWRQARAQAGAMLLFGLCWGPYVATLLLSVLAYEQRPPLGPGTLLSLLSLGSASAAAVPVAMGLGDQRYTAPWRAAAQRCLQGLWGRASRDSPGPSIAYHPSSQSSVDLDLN
Briefly: functional cAMP assay in CHO-dhfr(minus) cells expressing human GPBAR1 receptors. The note with it: functional cAMP assay, 30 min at 30° C., read-out: human EC50. The format is cell-based. Put shortly: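 Agonist cAMP read-out: stable GPBAR1 CHO-dhfr− clone, 30 min compound exposure at 30° C following 30 min IBMX (1 mM) preincubation in Krebs Ringer bicarbonate. Time-resolved energy-transfer detection gives EC50; parental CHO cells serve as counter-screen.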
For orientation: Cyclic AMP is a second messenger, typically raised through Gs and lowered through Gi signalling.
For orientation: EC50 means the concentration at which the effect is half-maximal. Regarding `CS(=O)(=O)c1cccc(-c2ccc(C(C/C(=N\O)c3ccncc3)c3ccccc3)cc2)c1` (stereo not shown) [Example 19, (E)-3-(3′-Methanesulfonyl-biphenyl-4-yl)-3-phenyl-1-pyridin-4-yl-propan-1-one oxime], the EC50 stood at 355 nM.

The same assay, now with this note: human EC50, functional cAMP assay, 30 min at 30° C.
`Cn1cc(/C(CC(c2ccc(S(C)(=O)=O)cc2)c2cc(F)cc(F)c2)=N/O)ccc1=O` (stereo not shown) [Example 351, (E)-5-(3-(3,5-Difluorophenyl)-1-(hydroxyimino)-3-(4-(methylsulfonyl)phenyl)propyl)-1-methylpyridin-2(1H)-one] yielded an EC50 of 452 nM. Still for that read-out and setting: in the case of `Cc1ccccc1C(C/C(=N/O)c1ccncc1)c1ccc(-c2cncnc2)cc1` (single isomer, unassigned; (-)) [Example 37, (−)-(Z)-1-pyridin-4-yl-3-(4-pyrimidin-5-yl-phenyl)-3-o-tolyl-propan-1-one oxime] it was 2200 nM.

In turn, `COC(=O)CNC(=O)c1ccc(-c2ccc(C(C/C(=N\O)c3ccc(=O)n(C)c3)c3ccc(Cl)cc3C)cc2)cc1` (stereo not shown) [Example 228, (E)-methyl 2-(4′-(1-(4-chloro-2-methylphenyl)-3-(hydroxyimino)-3-(1-methyl-6-oxo-1,6-dihydropyridin-3-yl)propyl)biphenyl-4-ylcarboxamido)acetate] displayed a concentration for a half-maximal effect (EC50) of 18 nM. `Cn1cc(/C(CC(c2ccc(Br)cc2)C2CCCCC2)=N/O)ccc1=O` (stereo not shown) [Example 178, 5-{3-(4-Bromo-phenyl)-3-cyclohexyl-1-[(E)-hydroxyimino]-propyl}-1-methyl-1H-pyridin-2-one] returned an EC50 of 42 nM.

Consider `Cc1ccccc1C(CC(=NO)c1ccncc1)c1cccc(C(=O)O)c1` (racemic) [Example 71, 3-{3-[Hydroxyimino]-3-pyridin-4-yl-1-o-tolyl-propyl}-benzoic acid], for which a half-maximal response (EC50) required 1620 nM. As to `Cn1cc(/C(CC(c2ccc(CO)cc2)c2ccc(Cl)cc2F)=N/O)ccc1=O` (stereo not shown) [Example 317, (E)-5-(3-(4-chloro-2-fluorophenyl)-1-(hydroxyimino)-3-(4-(hydroxymethyl)phenyl)propyl)-1-methylpyridin-2(1H)-one], the concentration for a half-maximal effect (EC50) was determined as 10 nM. In the case of `Cn1cc(/C(CC(c2ccc(Br)cc2F)C2CCCC2)=N/O)ccc1=O` (stereo not shown) [Example 192, 5-{3-(4-Bromo-2-fluoro-phenyl)-3-cyclopentyl-1-[(E)-hydroxyimino]-propyl}-1-methyl-1H-pyridin-2-one], the EC50 amounted to 107 nM. Compound `CCCC(C/C(=N\O)c1ccc(=O)n(C)c1)c1ccc(Br)cc1` (stereo not shown) [Example 174, 5-{3-(4-Bromo-phenyl)-1-[(E)-hydroxyimino]-hexyl}-1-methyl-1H-pyridin-2-one] had an EC50 of 268 nM.

`Cc1cc(Cl)ccc1C(C/C(=N\O)c1ccc(=O)n(C)c1)c1ccc(C(=O)NCCO)cc1` (stereo not shown) [Example 332, (E)-4-(1-(4-Chloro-2-methylphenyl)-3-(hydroxyimino)-3-(1-methyl-6-oxo-1,6-dihydropyridin-3-yl)propyl)-N-(2-hydroxyethyl)benzamide] gave a concentration giving a half-maximal response (EC50) of 129 nM. On the same count and under the same terms, in the case of `Cc1cc(C(=O)O)ccc1-c1ccc(C(C/C(=N\O)c2ccc(=O)n(C)c2)c2ccc(Cl)cc2Cl)cc1` (single isomer, unassigned) [Example 477, 4′-[(−)-1-(2,4-Dichloro-phenyl)-3-[(E)-hydroxyimino]-3-(1-methyl-6-oxo-1,6-dihydro-pyridin-3-yl)-propyl]-2-methyl-biphenyl-4-carboxylic acid] it was 111 nM; in that of `COCCNC(=O)c1ccc(C(C/C(=N\O)c2ccc(=O)n(C)c2)c2ccccc2Cl)cc1F` (stereo not shown) [Example 232, (E)-4-(1-(2-Chlorophenyl)-3-(hydroxyimino)-3-(1-methyl-6-oxo-1,6-dihydropyridin-3-yl)propyl)-2-fluoro-N-(2-methoxyethyl)benzamide], 137 nM. Same read-out and setting: as for `Cc1cc(Cl)ccc1C(C/C(=N\O)c1ccc(=O)n(C)c1)c1ccc(OCCCC(=O)O)c(F)c1` (stereo not shown) [Example 327, 4-{4-[1-(4-Chloro-2-methyl-phenyl)-3-[(E)-hydroxyimino]-3-(1-methyl-6-oxo-1,6-dihydro-pyridin-3-yl)-propyl]-2-fluoro-phenoxy}-butyric acid], the figure is 197 nM.
